Test results as given in PubChem BioAssay AID1963825 (Molecular Pharmacology Branch, DTP, NCI, 2024).

Experiment: Anticancer human tumor 997537-175-T-J1-PDC patient-derived colon adenocarcinoma cell line growth inhibition [POLQ]
Conditions: 997537-175-T-J1-PDC complex spheroid viability, combination with POLQ inhibitors; curve of first compound; second compound 10 µM
Method in brief: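 Three-cell-type spheroids modelling solid tumor plus stroma served as the readout system; POL inhibitors were tested individually and in combination, concentration ranges set by clinical Cmax where known.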
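Also: luminescence signal used as a surrogate for viable cells; spheroids exposed to drugs for seven days before readout.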

CNCc1ccc(-c2[nH]c3cc(F)cc4c3c2CCNC4=O)cc1 + COC1C(OC(N)=O)C(O)C(Oc2ccc3c(O)c(NC(=O)c4ccc(O)c(CC=C(C)C)c4)c(=O)oc3c2C)OC1(C)C and C=CC(=O)N1CCN(c2nc(=O)n(-c3c(C)ccnc3C(C)C)c3nc(-c4c(O)cccc4F)c(F)cc23)C(C)C1 (stereo unspecified) + Cc1cccc(N(C)C(=O)C2C(O)CCN2c2nc(C)cc(C(F)(F)F)c2C#N)c1 cannot be ordered by IC50: > 10 µM for the first, > 10 µM for the second.

Work on COc1cccc(OCCCN)c1-c1cc(Nc2cnc(C#N)cn2)n[nH]1 + Cc1cccc(N(C)C(=O)C2C(O)CCN2c2nc(C)cc(C(F)(F)F)c2C#N)c1 yielded an IC50 of 0.135 µM.

Same assay, conditions: 997537-175-T-J1-PDC complex spheroid viability, combination with POLQ inhibitors; second compound 0.0316 µM; first compound 0.00316 µM; stronger effect = lower value

For COc1cccc(OCCCN)c1-c1cc(Nc2cnc(C#N)cn2)n[nH]1 + Cc1cccc(N(C)C(=O)C2C(O)CCN2c2nc(C)cc(C(F)(F)F)c2C#N)c1, the viability, T/C was 92.7%.

Same assay, conditions: 997537-175-T-J1-PDC complex spheroid viability, combination with POLQ inhibitors; second compound 0.0316 µM; first compound 0.01 µM; stronger effect = lower value

In the case of COc1cccc(OCCCN)c1-c1cc(Nc2cnc(C#N)cn2)n[nH]1 + Cc1cccc(N(C)C(=O)C2C(O)CCN2c2nc(C)cc(C(F)(F)F)c2C#N)c1, the viability, T/C is reported as 97.7%.

Same assay, conditions: 997537-175-T-J1-PDC complex spheroid viability, combination with POLQ inhibitors; second compound 0.0316 µM; first compound 0.0316 µM; stronger effect = lower value

Compared with O=c1[nH]cc(F)c(=O)[nH]1 + Cc1cccc(N(C)C(=O)C2C(O)CCN2c2nc(C)cc(C(F)(F)F)c2C#N)c1, CNCc1ccc(-c2[nH]c3cc(F)cc4c3c2CCNC4=O)cc1 + COC1C(OC(N)=O)C(O)C(Oc2ccc3c(O)c(NC(=O)c4ccc(O)c(CC=C(C)C)c4)c(=O)oc3c2C)OC1(C)C is higher in viability, T/C: 84.2% for the first, 104% for the second.

First: COc1cccc(OCCCN)c1-c1cc(Nc2cnc(C#N)cn2)n[nH]1 + Cc1cccc(N(C)C(=O)C2C(O)CCN2c2nc(C)cc(C(F)(F)F)c2C#N)c1
Second: C=CC(=O)N1CCN(c2nc(=O)n(-c3c(C)ccnc3C(C)C)c3nc(-c4c(O)cccc4F)c(F)cc23)C(C)C1 (stereo unspecified) + Cc1cccc(N(C)C(=O)C2C(O)CCN2c2nc(C)cc(C(F)(F)F)c2C#N)c1
The viability, T/C of the first is lower: 79% for the first, 98.6% for the second.

Same assay, conditions: 997537-175-T-J1-PDC complex spheroid viability, combination with POLQ inhibitors; second compound 0.0316 µM; first compound 0.1 µM; stronger effect = lower value

First: O=c1[nH]cc(F)c(=O)[nH]1 + Cc1cccc(N(C)C(=O)C2C(O)CCN2c2nc(C)cc(C(F)(F)F)c2C#N)c1
Second: CNCc1ccc(-c2[nH]c3cc(F)cc4c3c2CCNC4=O)cc1 + COC1C(OC(N)=O)C(O)C(Oc2ccc3c(O)c(NC(=O)c4ccc(O)c(CC=C(C)C)c4)c(=O)oc3c2C)OC1(C)C
The viability, T/C of the first is higher: 109% for the first, 96.7% for the second.

Going from COc1cccc(OCCCN)c1-c1cc(Nc2cnc(C#N)cn2)n[nH]1 + Cc1cccc(N(C)C(=O)C2C(O)CCN2c2nc(C)cc(C(F)(F)F)c2C#N)c1 to C=CC(=O)N1CCN(c2nc(=O)n(-c3c(C)ccnc3C(C)C)c3nc(-c4c(O)cccc4F)c(F)cc23)C(C)C1 (stereo unspecified) + Cc1cccc(N(C)C(=O)C2C(O)CCN2c2nc(C)cc(C(F)(F)F)c2C#N)c1, the viability, T/C rises from 60.8% to 96.7%.

Same assay, conditions: 997537-175-T-J1-PDC complex spheroid viability, combination with POLQ inhibitors; second compound 0.0316 µM; first compound 0.316 µM; stronger effect = lower value

First: O=c1[nH]cc(F)c(=O)[nH]1 + Cc1cccc(N(C)C(=O)C2C(O)CCN2c2nc(C)cc(C(F)(F)F)c2C#N)c1
Second: CNCc1ccc(-c2[nH]c3cc(F)cc4c3c2CCNC4=O)cc1 + COC1C(OC(N)=O)C(O)C(Oc2ccc3c(O)c(NC(=O)c4ccc(O)c(CC=C(C)C)c4)c(=O)oc3c2C)OC1(C)C
The viability, T/C of the first is higher: 95.8% for the first, 90.3% for the second.

First: COc1cccc(OCCCN)c1-c1cc(Nc2cnc(C#N)cn2)n[nH]1 + Cc1cccc(N(C)C(=O)C2C(O)CCN2c2nc(C)cc(C(F)(F)F)c2C#N)c1
Second: C=CC(=O)N1CCN(c2nc(=O)n(-c3c(C)ccnc3C(C)C)c3nc(-c4c(O)cccc4F)c(F)cc23)C(C)C1 (stereo unspecified) + Cc1cccc(N(C)C(=O)C2C(O)CCN2c2nc(C)cc(C(F)(F)F)c2C#N)c1
The viability, T/C of the first is lower: 22.5% for the first, 102% for the second.

Same assay, conditions: 997537-175-T-J1-PDC complex spheroid viability, combination with POLQ inhibitors; second compound 0.0316 µM; first compound 1 µM; stronger effect = lower value

Going from O=c1[nH]cc(F)c(=O)[nH]1 + Cc1cccc(N(C)C(=O)C2C(O)CCN2c2nc(C)cc(C(F)(F)F)c2C#N)c1 to CNCc1ccc(-c2[nH]c3cc(F)cc4c3c2CCNC4=O)cc1 + COC1C(OC(N)=O)C(O)C(Oc2ccc3c(O)c(NC(=O)c4ccc(O)c(CC=C(C)C)c4)c(=O)oc3c2C)OC1(C)C, the viability, T/C rises from 96.7% to 97.5%.

First: COc1cccc(OCCCN)c1-c1cc(Nc2cnc(C#N)cn2)n[nH]1 + Cc1cccc(N(C)C(=O)C2C(O)CCN2c2nc(C)cc(C(F)(F)F)c2C#N)c1
Second: C=CC(=O)N1CCN(c2nc(=O)n(-c3c(C)ccnc3C(C)C)c3nc(-c4c(O)cccc4F)c(F)cc23)C(C)C1 (stereo unspecified) + Cc1cccc(N(C)C(=O)C2C(O)CCN2c2nc(C)cc(C(F)(F)F)c2C#N)c1
The viability, T/C of the first is lower: 27.9% for the first, 106% for the second.
